Source: the kinase profiling compilation of Christmann-Franck et al. (2016)

Columns and labels:
Test in all cases: KINOMEscan competition binding
Details in all cases: compound 2.0 µM
MAPKAPK2 (human) = MAPKAPK2 (human) (UniProt P49137)
ALK (human) = ALK (human) (UniProt Q9UM73)
PRKCH (human) = PRKCH (human) (UniProt P24723)
MERTK (human) = MERTK (human) (UniProt Q12866)
AKT1 (human) = AKT1 (human) (UniProt P31749)
[1] = tested on: PIK3CA (human), P42336 [I800L]
SRPK3 (human) = SRPK3 (human) (UniProt Q9UPE1)
[2] = target: JAK2 JH1 catalytic (human) (UniProt O60674)
TBK1 (human) = TBK1 (human) (UniProt Q9UHD2)
PAK4 (human) = PAK4 (human) (UniProt O96013)
MAPK8 (human) = MAPK8 (human) (UniProt P45983)
IRAK3 (human) = IRAK3 (human) (UniProt Q9Y616)
PAK2 (human) = PAK2 (human) (UniProt Q13177)
PLK1 (human) = PLK1 (human) (UniProt P53350)
NEK2 (human) = NEK2 (human) (UniProt P51955)
MYLK3 (human) = MYLK3 (human) (UniProt Q32MK0)
FLT1 (human) = FLT1 (human) (UniProt P17948)
TNIK (human) = TNIK (human) (UniProt Q9UKE5)
BMP2K (human) = BMP2K (human) (UniProt Q9NSY1)
CAMKK2 (human) = CAMKK2 (human) (UniProt Q96RR4)
CHEK2 (human) = CHEK2 (human) (UniProt O96017)
MAP3K5 (human) = MAP3K5 (human) (UniProt Q99683)
MAP2K2 (human) = MAP2K2 (human) (UniProt P36507)
NUAK2 (human) = NUAK2 (human) (UniProt Q9H093)
MLTK (human) = MLTK (human) (UniProt Q9NYL2)
NTRK2 (human) = NTRK2 (human) (UniProt Q16620)
PKMYT1 (human) = PKMYT1 (human) (UniProt Q99640)
ROCK2 (human) = ROCK2 (human) (UniProt O75116)
IRAK1 (human) = IRAK1 (human) (UniProt P51617)
CDK15 (human) = CDK15 (human) (UniProt Q96Q40)
[3] = tested on: KIT (human), P10721 [V559D/V654A]
[4] = tested on: EGFR (human), P00533 [752-759 del]
BRSK1 (human) = BRSK1 (human) (UniProt Q8TDC3)
MAP3K12 (human) = MAP3K12 (human) (UniProt Q12852)
RPS6KA6 KD1 (human) = RPS6KA6 KD1 (human) (UniProt Q9UK32)
MST1R (human) = MST1R (human) (UniProt Q04912)
STK10 (human) = STK10 (human) (UniProt O94804)
MTOR (human) = MTOR (human) (UniProt P42345)
EPHA7 (human) = EPHA7 (human) (UniProt Q15375)
PIK3CD (human) = PIK3CD (human) (UniProt O00329)
ROS1 (human) = ROS1 (human) (UniProt P08922)
EPHB4 (human) = EPHB4 (human) (UniProt P54760)
CDK5 (human) = CDK5 (human) (UniProt Q00535)
Chain of CDK5 (human) (Q00535 whole entry, looked up): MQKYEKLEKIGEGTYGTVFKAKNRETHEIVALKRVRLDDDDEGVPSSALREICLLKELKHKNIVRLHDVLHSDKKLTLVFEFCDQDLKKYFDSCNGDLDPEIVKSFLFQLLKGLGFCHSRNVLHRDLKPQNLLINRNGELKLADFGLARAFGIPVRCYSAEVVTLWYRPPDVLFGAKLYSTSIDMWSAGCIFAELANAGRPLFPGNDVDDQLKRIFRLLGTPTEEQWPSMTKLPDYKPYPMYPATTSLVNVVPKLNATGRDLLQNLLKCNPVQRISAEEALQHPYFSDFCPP

Chain of PRKCH (human) (P24723 whole entry, looked up): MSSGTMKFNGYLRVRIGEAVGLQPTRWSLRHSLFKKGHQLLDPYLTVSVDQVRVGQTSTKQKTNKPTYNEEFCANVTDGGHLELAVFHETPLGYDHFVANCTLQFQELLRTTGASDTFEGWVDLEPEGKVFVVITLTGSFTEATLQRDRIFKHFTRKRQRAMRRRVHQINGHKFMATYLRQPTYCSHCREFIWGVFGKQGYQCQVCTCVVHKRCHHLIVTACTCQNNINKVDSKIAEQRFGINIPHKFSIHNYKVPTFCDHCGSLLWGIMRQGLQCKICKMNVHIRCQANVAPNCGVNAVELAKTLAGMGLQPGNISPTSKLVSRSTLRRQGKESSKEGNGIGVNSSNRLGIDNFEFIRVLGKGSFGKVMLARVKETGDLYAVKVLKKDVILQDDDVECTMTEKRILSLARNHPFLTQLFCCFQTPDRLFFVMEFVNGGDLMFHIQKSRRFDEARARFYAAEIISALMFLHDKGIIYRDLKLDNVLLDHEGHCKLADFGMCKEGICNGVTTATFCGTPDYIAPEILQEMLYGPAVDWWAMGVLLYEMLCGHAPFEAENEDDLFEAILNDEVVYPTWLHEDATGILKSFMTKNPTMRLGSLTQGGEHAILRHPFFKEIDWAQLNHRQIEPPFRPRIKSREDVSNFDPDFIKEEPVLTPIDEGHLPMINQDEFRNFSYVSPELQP
Chain of ROS1 (human) (P08922 whole entry, looked up): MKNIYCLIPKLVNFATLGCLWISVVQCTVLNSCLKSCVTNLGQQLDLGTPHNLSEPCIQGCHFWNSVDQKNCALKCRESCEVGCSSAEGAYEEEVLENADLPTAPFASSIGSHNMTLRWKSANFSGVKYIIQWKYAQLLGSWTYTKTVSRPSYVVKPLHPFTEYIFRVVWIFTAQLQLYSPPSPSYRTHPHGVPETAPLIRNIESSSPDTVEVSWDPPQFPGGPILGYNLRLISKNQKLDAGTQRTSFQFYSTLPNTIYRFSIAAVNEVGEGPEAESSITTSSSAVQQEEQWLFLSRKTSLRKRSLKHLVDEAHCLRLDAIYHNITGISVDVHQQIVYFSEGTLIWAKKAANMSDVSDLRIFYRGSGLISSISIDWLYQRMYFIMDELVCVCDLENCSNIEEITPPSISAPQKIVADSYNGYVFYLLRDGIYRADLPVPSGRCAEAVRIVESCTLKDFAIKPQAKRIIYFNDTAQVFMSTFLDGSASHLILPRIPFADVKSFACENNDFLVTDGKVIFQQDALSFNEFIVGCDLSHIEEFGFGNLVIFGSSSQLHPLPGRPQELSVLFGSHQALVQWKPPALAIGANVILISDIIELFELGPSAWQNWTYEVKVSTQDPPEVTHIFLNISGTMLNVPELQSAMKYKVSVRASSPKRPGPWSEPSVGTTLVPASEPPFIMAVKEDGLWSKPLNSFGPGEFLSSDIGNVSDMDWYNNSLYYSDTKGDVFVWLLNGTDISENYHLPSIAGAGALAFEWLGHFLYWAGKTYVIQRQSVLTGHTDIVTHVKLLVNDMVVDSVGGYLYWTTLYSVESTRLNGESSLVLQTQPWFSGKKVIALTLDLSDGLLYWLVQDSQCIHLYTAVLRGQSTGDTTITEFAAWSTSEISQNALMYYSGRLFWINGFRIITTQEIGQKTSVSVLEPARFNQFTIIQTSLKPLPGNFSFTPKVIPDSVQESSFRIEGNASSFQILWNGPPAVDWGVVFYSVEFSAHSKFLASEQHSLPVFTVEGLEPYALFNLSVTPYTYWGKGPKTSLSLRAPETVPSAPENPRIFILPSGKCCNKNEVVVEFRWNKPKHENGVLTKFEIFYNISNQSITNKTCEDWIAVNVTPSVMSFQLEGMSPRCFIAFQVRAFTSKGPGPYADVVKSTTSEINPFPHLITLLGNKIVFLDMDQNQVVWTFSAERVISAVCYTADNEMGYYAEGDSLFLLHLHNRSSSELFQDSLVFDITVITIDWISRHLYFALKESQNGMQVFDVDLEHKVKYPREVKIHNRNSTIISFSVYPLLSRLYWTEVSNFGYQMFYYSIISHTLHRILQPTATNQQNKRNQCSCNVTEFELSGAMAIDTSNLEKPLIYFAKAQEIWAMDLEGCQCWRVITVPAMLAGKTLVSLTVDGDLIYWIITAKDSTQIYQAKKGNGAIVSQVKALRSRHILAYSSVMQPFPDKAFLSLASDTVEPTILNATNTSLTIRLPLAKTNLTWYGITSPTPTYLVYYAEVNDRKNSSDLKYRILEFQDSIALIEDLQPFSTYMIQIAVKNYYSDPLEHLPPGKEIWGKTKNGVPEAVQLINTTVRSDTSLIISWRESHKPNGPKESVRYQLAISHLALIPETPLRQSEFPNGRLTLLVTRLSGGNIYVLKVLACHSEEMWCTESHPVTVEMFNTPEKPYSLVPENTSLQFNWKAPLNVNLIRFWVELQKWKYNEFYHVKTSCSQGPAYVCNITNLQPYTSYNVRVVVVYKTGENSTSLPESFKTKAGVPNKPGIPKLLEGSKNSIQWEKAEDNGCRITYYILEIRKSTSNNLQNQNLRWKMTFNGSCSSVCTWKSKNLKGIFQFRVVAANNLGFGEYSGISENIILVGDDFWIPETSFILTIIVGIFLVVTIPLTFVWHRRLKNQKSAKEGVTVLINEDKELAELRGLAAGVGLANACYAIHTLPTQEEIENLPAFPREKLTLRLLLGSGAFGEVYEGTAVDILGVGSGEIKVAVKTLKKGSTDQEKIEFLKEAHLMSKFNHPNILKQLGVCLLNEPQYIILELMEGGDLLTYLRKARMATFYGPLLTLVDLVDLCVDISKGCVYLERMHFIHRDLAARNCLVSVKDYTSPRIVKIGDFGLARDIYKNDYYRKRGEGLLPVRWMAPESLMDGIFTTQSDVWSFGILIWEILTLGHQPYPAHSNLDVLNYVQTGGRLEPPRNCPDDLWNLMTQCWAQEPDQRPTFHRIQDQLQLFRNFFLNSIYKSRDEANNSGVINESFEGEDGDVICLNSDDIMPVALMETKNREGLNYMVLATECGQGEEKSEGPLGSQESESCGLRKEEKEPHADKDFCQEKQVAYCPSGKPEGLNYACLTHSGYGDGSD
Chain of MLTK (human) (Q9NYL2 whole entry, looked up): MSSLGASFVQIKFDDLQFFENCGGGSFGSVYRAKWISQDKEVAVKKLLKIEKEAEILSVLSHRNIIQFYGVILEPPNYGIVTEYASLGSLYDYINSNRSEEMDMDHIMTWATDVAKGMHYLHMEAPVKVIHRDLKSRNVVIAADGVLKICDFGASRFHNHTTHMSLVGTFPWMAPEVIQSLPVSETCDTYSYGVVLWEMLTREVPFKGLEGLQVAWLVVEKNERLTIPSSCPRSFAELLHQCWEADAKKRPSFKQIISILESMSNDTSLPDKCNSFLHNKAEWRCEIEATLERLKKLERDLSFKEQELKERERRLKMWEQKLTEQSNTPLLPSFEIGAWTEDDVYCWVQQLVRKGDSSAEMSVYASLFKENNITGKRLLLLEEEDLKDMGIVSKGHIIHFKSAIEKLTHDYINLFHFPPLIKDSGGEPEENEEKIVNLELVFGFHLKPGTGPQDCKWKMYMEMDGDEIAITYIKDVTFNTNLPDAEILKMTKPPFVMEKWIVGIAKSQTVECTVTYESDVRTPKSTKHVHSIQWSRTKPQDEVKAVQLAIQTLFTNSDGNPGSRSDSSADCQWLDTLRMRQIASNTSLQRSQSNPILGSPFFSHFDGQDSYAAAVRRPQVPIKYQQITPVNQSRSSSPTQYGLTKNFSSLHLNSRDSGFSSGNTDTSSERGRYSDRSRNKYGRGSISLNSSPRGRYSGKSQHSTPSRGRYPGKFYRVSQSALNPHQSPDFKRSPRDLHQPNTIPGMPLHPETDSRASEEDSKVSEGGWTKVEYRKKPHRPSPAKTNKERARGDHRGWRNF
Chain of CHEK2 (human) (O96017 whole entry, looked up): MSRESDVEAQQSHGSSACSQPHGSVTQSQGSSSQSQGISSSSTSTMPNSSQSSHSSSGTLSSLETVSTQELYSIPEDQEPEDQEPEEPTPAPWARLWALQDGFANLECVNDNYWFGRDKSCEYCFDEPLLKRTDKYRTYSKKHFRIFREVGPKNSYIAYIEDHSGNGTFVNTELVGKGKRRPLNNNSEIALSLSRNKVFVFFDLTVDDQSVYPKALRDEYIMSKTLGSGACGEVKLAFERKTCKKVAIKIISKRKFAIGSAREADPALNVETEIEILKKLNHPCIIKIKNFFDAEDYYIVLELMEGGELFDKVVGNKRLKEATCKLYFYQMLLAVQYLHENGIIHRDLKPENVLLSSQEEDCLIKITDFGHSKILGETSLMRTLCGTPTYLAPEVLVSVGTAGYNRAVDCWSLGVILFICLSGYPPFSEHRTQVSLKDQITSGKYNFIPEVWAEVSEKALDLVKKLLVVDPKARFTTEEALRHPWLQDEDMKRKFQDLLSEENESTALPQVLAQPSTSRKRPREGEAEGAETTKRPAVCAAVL
Chain of MAP2K2 (human) (P36507 whole entry, looked up): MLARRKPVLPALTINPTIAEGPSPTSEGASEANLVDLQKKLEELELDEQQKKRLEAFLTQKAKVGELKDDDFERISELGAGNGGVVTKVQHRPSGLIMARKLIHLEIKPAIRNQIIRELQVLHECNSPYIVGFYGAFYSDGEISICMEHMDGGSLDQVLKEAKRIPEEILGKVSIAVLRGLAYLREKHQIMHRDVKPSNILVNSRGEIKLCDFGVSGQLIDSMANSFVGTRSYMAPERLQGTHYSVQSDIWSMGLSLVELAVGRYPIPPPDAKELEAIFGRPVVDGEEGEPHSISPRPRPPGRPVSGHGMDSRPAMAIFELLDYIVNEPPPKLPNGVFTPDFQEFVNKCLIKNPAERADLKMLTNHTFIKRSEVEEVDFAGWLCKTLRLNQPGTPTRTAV

N#Cc1ccc2ncnc(NCCc3ccc4ccccc4c3)c2c1
kinase still bound, per cent of control (MAPKAPK2 (human)): 100% | kinase still bound, per cent of control (ALK (human)): 100% | kinase still bound, per cent of control (PRKCH (human)): 100% | kinase still bound, per cent of control (MERTK (human)): 93% | kinase still bound, per cent of control (AKT1 (human)): 81% | kinase still bound, per cent of control [1]: 85% | kinase still bound, per cent of control (SRPK3 (human)): 86% | kinase still bound, per cent of control [2]: 100% | kinase still bound, per cent of control (TBK1 (human)): 100% | kinase still bound, per cent of control (PAK4 (human)): 91% | kinase still bound, per cent of control (MAPK8 (human)): 100% | kinase still bound, per cent of control (IRAK3 (human)): 82% | kinase still bound, per cent of control (PAK2 (human)): 82% | kinase still bound, per cent of control (PLK1 (human)): 88% | kinase still bound, per cent of control (NEK2 (human)): 100% | kinase still bound, per cent of control (MYLK3 (human)): 79% | kinase still bound, per cent of control (FLT1 (human)): 89% | kinase still bound, per cent of control (TNIK (human)): 97% | kinase still bound, per cent of control (BMP2K (human)): 68% | kinase still bound, per cent of control (CAMKK2 (human)): 100% | kinase still bound, per cent of control (CHEK2 (human)): 62% | kinase still bound, per cent of control (MAP3K5 (human)): 95% | kinase still bound, per cent of control (MAP2K2 (human)): 80% | kinase still bound, per cent of control (NUAK2 (human)): 77% | kinase still bound, per cent of control (MLTK (human)): 100% | kinase still bound, per cent of control (NTRK2 (human)): 98% | kinase still bound, per cent of control (PKMYT1 (human)): 100% | kinase still bound, per cent of control (ROCK2 (human)): 92% | kinase still bound, per cent of control (IRAK1 (human)): 98% | kinase still bound, per cent of control (CDK15 (human)): 100% | kinase still bound, per cent of control [3]: 100% | kinase still bound, per cent of control [4]: 80% | kinase still bound, per cent of control (BRSK1 (human)): 100% | kinase still bound, per cent of control (MAP3K12 (human)): 100% | kinase still bound, per cent of control (RPS6KA6 KD1 (human)): 100% | kinase still bound, per cent of control (MST1R (human)): 100% | kinase still bound, per cent of control (STK10 (human)): 67% | kinase still bound, per cent of control (MTOR (human)): 80% | kinase still bound, per cent of control (EPHA7 (human)): 93% | kinase still bound, per cent of control (PIK3CD (human)): 100% | kinase still bound, per cent of control (ROS1 (human)): 95% | kinase still bound, per cent of control (EPHB4 (human)): 100% | kinase still bound, per cent of control (CDK5 (human)): 100%
